Assay results reported in patent publication US12410152B2, “Oxazole and thioazole-type cullin ring ubiquitin ligase compounds and uses thereof” (Proxygen GmbH, priority 2019, dated 2025).

Columns and labels:
KBM7 CUL4Amut cells = experiment: Cell viability assay, KBM7 CUL4A mutant; format: cell-based, human; conditions: Table 2, data of FIG. 6; 3-day treatment; read-out: LC50 CUL4Amut
Description: KBM7 cells with the specified genetic backgrounds were grown in IMDM supplemented with 10% FBS and 1% penicillin/streptomycin (pen/strep). AsPC1, HCT116, NCI-H446 and 293T cells were grown in DMEM 10% FBS and 1% pen/strep. MV4; 11, Jurkat and Be (2) C cells were grown in RPMI 10% FBS 1% pen/strep. KBM7, AsPC1 and HCT116 cells expressing Cas9 were generated using the plasmid Lenti_Cas9_Blasti (Addgene #52962). The lentiviral plasmid lentiGuide-Puro (Addgene #52963) was used to express sgRNAs against the genes UBE2M (in KBM7-Cas9, AsPC1-Cas9 and HCT116-Cas9 cells), UBE2G1 (in KBM7-Cas9 cells) and […] (in KBM7-Cas9 cells). The lentiviral plasmid lentiGuide-Puro-IRES-mCherry (modified from Addgene #52963) was used to express sgRNAs against CUL4A (in KBM7-Cas9 cells). The lentiviral plasmid pLenti-PGK-Hygro-DEST-UBE2M was generated by Gateway cloning (empty destination vector Addgene #19066), and used to generate UBE2M^resc KBM7 cells.
Validating the previous results, a strong enrichment for cells transduced with UBE2Mtargeting sgRNAs was detected. […] The fact that Rbx1 was not detected in the initial experiment is likely explained by the fact that prolonged loss of RBX1 function is detrimental to cellular fitness. […] To understand if the tested compounds were uniquely dependent on CUL4B over CUL4A, a differential drug efficacy was assessed in dose ranging viability assays in KBM7 WT cells and isogenic clones deficient in either CUL4A, CUL4B, and UBE2G1. […]
KBM7^WT, mutant KBM7 clones (UBE2M^mut, UBE2M^resc, UBE2G1^mut CUL4A^mut, CUL4B^mut), and 3-day doxycycline pretreated KBM7^iCas9_sgDDB1 cells were seeded at a cell density of 50,000 cells/mL in 96-well plates with DMSO or drug, in triplicates. […] Cells were treated for 3 days, after which cell viability was assessed according to manufacturer's protocol (CellTiter Glo, Promega G7570). Survival curves and EC50 values were calculated by best-fit analysis of the log 10 drug concentration to fold change of drug-treated cells over DMSO-treated cells. […]

cyclin K (CCNK) = target: T1, cyclin K (CCNK) (Homo sapiens, UniProt Q16531+Q9NYV4); experiment: CCNK destabilization/degradation (expression proteomics and Western blot); format: cell-based; conditions: for effect on CCNK upon inactivation of DDB1, UBE2G1 and UBE2M: CRISPR-inactivated KBM7 cells
T1 construct: endogenous in cells; host or cells: KBM7 cells (WT and UBE2M/CUL4B/UBE2G1 mutant clones)
Description: (§1) The hypomorphic phenotype of the mutated UBE2M allele in KBM7 cells (KBM7 UBE2M^mut cells) was assessed. In this regard, CRISPR/Cas9-induced mutation of UBE2M inactivated CRL activity including CRL4^CRBN and CRL2^VHL. […] Additionally, CCNK destabilization by all three compounds was validated via time-resolved immunoblots wherein CCNK degradation was evident after two hours (FIG. 19c).
(§2) Subsequently, a total of 53 structurally related analogue compounds in dose-ranging viability assays in KBM7 wildtype- and UBE2M^mut cells was tested to develop a structure-activity relationship for the assayed compounds. This informed on sites amenable for derivatization of analogs (FIG. 20a), and also to the identification of structurally similar small molecules with no measurable activity that are thus suited negative controls. […] CRL activity-dependent degradation of CCNK could be rescued by pharmacologic NAE inhibition and by blocking the ubiquitin activating enzyme UBA1, particularly by pretreating the cells with 1 μM carfilzomib (Selleckchem, S2853), 1 μM MLN4924 (Selleckchem, S7109), 10 μM TAK-243 (MedChemExpress, HY-100487) or 1 μM THZ531 (MedChemExpress HY-103618) (FIG. 19d). Furthermore, treatment with the selective covalent CDK12/13 inhibitor THZ531, which binds to the ATP binding pocket of CDK12/13, rescued CCNK degradation (FIG. 19d) indicating the role of the active site of CDK12/13 for CRL activity-dependent CCNK degradation by the identified compounds (FIG. 19d).
(§3) PBS-washed cell pellets were lysed in 50 mM Tris pH 7.9, 8M Urea and 1% CHAPS and incubated with shaking at 4° C. for at least 30 min. 20 μg of supernatants were run and transferred for detection. Antibodies used: CUL1 (Santa Cruz Biotechnology, sc-1276), CUL2 (Sigma-Aldrich, SAB2501565-100), CUL3 (Cell Signaling Technology, 2759), CUL4A (Cell Signaling Technology, 2699S), CUL4B (Proteintech, 12916-1-AP), CUL5 (Santa Cruz Biotechnology, sc-373822), UBE2M (Santa Cruz Biotechnology, sc-390064), DDB1 (Cell Signaling Technology, 5428S), CCNK (Bethyl, A301-939A), CDK12 (Cell Signaling Technology, 11973S), CDK13 (Bethyl, A301-458A), RBM39 (1:500, Santa Cruz Biotechnology sc-376531), V5 (Cell Signaling Technology, 13202), Ubiquityl-Histone H2A (K119) (Cell Signaling, 8240-20). ACTIN (Sigma-Aldrich, A5441), VINCUL1N (Santa Cruz Biotechnology, sc-25336). Secondary antibodies anti-mouse/rabbit/goat (Jackson ImmunoResearch 115-035-003, 111-035-003 and 705-035-003).
(§4) Comparison of overall proteome-wide changes in KBM7 cells treated with IC020772.1 (2.5 μM), IC021313.2 (7 μM) or T6938051 (3.5 μM) for 5 h and 12h, using quantitative proteomics based on isobaric tagging.

[1] = test system: T2, cyclin K (CCNK) (Homo sapiens); experiment: as above; format: cell-based; conditions: wild-type KBM7 cells
T2 construct: endogenous in cells; host or cells: KBM7 cells (WT and UBE2M/CUL4B/UBE2G1 mutant clones)
Description: as §1, §2, §3, §4

T2 sequence (O75909 whole entry partner): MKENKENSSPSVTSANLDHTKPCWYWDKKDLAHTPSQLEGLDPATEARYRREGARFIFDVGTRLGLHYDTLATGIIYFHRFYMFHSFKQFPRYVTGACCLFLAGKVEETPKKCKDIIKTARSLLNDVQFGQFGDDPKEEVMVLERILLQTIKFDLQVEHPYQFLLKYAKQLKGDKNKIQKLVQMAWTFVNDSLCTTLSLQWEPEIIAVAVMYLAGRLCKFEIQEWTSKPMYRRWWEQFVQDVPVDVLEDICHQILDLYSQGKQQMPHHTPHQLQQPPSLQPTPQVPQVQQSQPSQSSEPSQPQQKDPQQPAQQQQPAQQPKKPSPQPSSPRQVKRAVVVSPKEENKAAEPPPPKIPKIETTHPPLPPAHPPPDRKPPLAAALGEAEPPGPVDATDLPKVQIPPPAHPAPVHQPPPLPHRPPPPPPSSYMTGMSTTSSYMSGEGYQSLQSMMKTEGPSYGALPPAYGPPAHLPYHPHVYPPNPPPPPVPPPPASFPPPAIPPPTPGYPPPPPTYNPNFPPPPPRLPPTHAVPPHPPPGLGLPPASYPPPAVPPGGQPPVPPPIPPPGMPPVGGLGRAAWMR
T2 sequence (Q9NYV4 whole entry, further chain): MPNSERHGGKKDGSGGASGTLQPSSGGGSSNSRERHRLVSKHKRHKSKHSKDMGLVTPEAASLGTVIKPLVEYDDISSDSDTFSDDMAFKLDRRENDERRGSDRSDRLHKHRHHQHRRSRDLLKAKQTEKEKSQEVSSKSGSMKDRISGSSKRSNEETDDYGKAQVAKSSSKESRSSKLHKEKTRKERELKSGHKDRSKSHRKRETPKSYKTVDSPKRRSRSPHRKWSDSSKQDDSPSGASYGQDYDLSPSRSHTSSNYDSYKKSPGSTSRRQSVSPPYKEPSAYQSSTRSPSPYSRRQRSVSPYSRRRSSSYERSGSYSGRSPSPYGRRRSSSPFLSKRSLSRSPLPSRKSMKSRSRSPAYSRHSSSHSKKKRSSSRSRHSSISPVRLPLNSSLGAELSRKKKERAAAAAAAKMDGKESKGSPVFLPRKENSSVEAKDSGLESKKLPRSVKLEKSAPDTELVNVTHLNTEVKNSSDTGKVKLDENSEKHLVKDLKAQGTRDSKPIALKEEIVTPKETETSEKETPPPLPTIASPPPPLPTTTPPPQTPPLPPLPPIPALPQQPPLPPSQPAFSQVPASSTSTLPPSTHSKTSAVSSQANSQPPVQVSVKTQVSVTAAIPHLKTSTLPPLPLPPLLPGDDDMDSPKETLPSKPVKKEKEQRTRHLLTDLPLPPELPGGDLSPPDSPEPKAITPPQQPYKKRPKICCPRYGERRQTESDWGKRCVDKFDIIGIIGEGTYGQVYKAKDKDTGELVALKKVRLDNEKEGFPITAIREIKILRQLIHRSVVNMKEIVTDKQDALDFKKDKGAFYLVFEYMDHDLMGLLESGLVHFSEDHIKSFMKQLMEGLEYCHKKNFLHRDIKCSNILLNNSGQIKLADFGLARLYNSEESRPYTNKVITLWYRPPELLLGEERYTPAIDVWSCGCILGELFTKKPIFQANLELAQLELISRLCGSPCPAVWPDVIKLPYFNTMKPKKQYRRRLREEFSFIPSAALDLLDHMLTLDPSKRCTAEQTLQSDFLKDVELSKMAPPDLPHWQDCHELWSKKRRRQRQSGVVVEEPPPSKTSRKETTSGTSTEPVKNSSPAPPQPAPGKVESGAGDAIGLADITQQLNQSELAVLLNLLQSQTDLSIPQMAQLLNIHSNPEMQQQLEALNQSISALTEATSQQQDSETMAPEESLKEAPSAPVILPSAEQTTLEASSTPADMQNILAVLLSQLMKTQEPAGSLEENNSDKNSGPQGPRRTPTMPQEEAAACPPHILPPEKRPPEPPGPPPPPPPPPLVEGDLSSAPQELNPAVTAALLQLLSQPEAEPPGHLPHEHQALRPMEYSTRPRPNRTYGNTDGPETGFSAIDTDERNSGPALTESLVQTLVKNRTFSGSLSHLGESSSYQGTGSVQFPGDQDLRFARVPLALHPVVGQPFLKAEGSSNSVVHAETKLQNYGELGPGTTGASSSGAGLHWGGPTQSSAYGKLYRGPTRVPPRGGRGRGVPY
T2 sequence (Q16531 2-1140 limits assumed, further chain): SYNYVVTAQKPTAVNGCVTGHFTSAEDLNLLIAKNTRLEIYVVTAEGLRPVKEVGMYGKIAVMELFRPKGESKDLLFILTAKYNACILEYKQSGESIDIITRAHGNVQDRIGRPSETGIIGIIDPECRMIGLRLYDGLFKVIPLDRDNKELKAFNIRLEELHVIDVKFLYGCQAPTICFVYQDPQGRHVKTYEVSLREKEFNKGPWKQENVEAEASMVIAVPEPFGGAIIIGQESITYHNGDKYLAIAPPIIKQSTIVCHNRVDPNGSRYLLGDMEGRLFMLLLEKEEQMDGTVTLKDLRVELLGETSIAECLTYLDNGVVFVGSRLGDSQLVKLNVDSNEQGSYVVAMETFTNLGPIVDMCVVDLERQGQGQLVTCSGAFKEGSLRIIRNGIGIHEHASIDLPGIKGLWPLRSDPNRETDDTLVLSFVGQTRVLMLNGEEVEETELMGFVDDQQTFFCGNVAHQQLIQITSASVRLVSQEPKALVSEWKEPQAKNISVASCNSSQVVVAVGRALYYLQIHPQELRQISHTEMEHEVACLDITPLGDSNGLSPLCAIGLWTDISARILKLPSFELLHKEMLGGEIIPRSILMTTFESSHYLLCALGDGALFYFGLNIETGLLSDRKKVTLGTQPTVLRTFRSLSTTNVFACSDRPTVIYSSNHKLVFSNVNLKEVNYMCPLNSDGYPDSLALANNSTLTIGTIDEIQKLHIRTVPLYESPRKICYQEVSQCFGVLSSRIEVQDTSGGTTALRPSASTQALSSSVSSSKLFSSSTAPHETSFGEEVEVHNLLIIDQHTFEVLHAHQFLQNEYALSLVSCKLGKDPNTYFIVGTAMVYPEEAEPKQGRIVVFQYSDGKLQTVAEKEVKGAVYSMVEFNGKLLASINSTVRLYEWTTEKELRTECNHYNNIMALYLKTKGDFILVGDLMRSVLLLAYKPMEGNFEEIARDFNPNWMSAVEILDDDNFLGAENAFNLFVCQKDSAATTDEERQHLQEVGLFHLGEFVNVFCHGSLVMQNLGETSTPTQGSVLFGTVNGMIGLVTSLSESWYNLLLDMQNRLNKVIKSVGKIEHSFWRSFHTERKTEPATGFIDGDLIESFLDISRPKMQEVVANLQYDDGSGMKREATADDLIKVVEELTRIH
T2 sequence (Q13620 whole entry partner): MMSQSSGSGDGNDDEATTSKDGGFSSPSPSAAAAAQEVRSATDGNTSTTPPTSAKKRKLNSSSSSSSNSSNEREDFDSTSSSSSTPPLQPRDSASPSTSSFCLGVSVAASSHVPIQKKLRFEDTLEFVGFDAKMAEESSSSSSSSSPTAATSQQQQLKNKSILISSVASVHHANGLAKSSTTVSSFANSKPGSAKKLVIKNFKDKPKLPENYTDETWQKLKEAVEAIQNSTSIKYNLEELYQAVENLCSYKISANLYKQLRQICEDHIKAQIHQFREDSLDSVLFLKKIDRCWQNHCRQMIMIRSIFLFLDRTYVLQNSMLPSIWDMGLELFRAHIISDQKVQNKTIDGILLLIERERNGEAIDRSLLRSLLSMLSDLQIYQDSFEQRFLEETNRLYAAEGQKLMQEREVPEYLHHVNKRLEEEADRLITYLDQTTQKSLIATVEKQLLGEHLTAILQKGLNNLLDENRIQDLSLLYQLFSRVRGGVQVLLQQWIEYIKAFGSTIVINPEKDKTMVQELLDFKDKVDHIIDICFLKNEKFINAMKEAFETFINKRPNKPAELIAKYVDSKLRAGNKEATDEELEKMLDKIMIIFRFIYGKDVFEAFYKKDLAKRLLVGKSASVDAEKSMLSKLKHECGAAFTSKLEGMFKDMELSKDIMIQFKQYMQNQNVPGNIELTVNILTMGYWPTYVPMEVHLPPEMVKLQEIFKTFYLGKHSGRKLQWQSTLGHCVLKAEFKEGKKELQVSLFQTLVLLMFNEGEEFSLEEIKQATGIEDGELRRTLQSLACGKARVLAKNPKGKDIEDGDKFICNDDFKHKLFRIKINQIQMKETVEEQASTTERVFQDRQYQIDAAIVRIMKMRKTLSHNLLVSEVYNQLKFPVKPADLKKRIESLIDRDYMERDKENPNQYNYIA
T2 sequence (P62877 whole entry partner): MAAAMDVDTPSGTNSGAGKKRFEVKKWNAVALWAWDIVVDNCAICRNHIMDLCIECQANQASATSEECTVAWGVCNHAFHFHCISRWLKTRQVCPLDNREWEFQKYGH
T1 sequence (O75909 whole entry partner): as the sequence (O75909 whole entry partner) above
T1 sequence (Q9NYV4 whole entry): as the sequence (Q9NYV4 whole entry, further chain) above
T1 sequence (Q16531 2-1140 limits assumed): as the sequence (Q16531 2-1140 limits assumed, further chain) above
T1 sequence (Q13620 whole entry partner): as the sequence (Q13620 whole entry partner) above
T1 sequence (P62877 whole entry partner): as the sequence (P62877 whole entry partner) above

Row | Compound | CC50 (KBM7 CUL4Amut cells) [µM] | effect on CCNK upon inactivation of DDB1, UBE2G1 and UBE2M (cyclin K (CCNK)) | CCNK destabilization [1] | logFC (IC021313.2/DMSO), CCNK (O75909-3) (cyclin K (CCNK); expression proteomics, drug vs DMSO, Table 4, log2FC < −0.3)
1 | Cc1ccc(C(=O)N2CSCC2C(=O)N=c2[nH]cc(C)s2)o1 (stereo not shown) [Compound T6938051] | 2.26 | abrogated | destabilization of cyclin K (CCNK) | 
2 | O=C(CSc1nnc2c(n1)[nH]c1ccccc12)Nc1ccc(Cl)cn1 [IC020772.1] | 1.22 | abrogated | destabilization of cyclin K (CCNK) | 
3 | O=C(CSc1nc2ccccc2[nH]1)Nc1ccc(Cl)cn1 [IC021313.2] | 1.56 | abrogated | destabilization of cyclin K (CCNK) | −0.873
